Measured values published in US20090156646A1, “PYRIDYLPHENOL COMPOUND AND USE THEREOF” (TAKEDA PHARMACEUTICAL COMPANY LIMITED, priority 2005, published 2009).
Counter-ions that a name gives are not always drawn.

Assays:
[1] = biological target: T1, human metastin receptor hOT7T175 (Homo sapiens, UniProt Q969F8, L364H); assay: FLIPR assay of metastin-induced change in intracellular calcium in h175-16 cells (antagonist activity); assay type: cell-based; details: human metastin (40-54) as ligand, Fluo-3 fluorescence
T1 construct: encoding the entire length of human metastin receptor hOT7T175; expressed in transfected cells; host or cells: CHO/dhFr- cells (ATCC #CRL-9096) stably transfected with pAKKO-hOT7T175; clone h175-16 was used as whole cells for FLIPR
Description: cDNA fragments (SEQ ID NO: 2) encoding the entire length of human metastin receptor hOT7T175 were incorporated into expression vector pAKKO1.11H to produce animal cell expression plasmids pAKKO-hOT7T175. CHO/dhFr-cells (ATCC, #CRL-9096) were seeded onto 6 cm culture dishes (Becton Dickinson) at a density of 0.3×10^6 cells/dish, and cultured in the conditions of 48 hours, 37° C. and 5% CO2. 5 μg pAKKO-hOT7T175 plasmid DNA was transfected to the resultant cells by a known method (described in Example 3 of WO 00/24890) using the Cellphect Transfection Kit (Amersham, #27-9268-01). The DNA-transfected cells were cultured in the Dulbecco's modified Eagle medium (DMEM) (Sigma, #D6046) containing 10% dialyzed FBS (Biowest, #S180D), 1× Non-Essential Amino Acid (Invitrogen, #11140-050) and 50 μg/ml Gentamycin (Invitrogen, #15750-060; and cell strains stably expressing the plasmid genes were selected. The obtained 41 clones were treated with the FLIPR assay (in accordance with the method described in Example 3 of WO 00/24890), and the reactivity to the human metastin […] (Nos. 40 to 54 of the human metastin sequence; Peptide Institute, Inc., #4389-v) was evaluated. In the end, h175 KB34 cell strains were selected. By substantially the same method, h175-16 cell strains were also produced.
The h175-16 cell strains prepared in Test Example 1 were seeded onto a 96-well plate (Corning, #3904) at 3×10^4 cell/well, and cultured for 24 hours on a CO2 incubator (cell seeding plate).
A calcium kit buffer containing 0.1% BSA [20 mM HEPES, 115 mM NaCl, 5.4 mM KCl, 0.8 mM MgCl2, 1.8 mM CaCl2, 13.8 mM D-glucose, pH 7.4, with an attached calcium kit produced by Dojin] was prepared and kept warm at 37° C. Then, the medium in the wells of the cell seeding plate was removed, and […] of the calcium kit buffer was added to each well. 50 μl 250 mM Probenecid (with an attached calcium kit produced by Dojin), 80 μl 5% Pluronic F-127 (with an attached calcium kit produced by Dojin) and 25 μl Fluo-3 AM (powder with an attached calcium kit produced by Dojin was dissolved in DMSO at 1 mg/ml) were added to the calcium kit buffer containing 5 ml 0.1% BSA (an amount for measuring one plate) to prepare a loading solution. 50 μl of the loading solution was added to each well to allow a reaction at 37° C. for 1 hour. Thus, Fluo-3 AM was loaded onto the cells. Then, the solution in each well was removed, and 100 μl of the calcium kit buffer containing 1.25 mM Probenecid and 0.1% BSA was added to each well.
50 μl of a test compound diluted with the calcium kit buffer containing 0.1% BSA was added to each well, and stirred by a plate shaker. A cell plate, and a ligand plate provided with human metastin (40-54) (AnyGen) diluted to 400 μM with the calcium kit buffer containing 0.1% BSA, were set to the Fluorometric Imaging Plate Reader (FLIPR, Molecular Devices), and […] was added to each well using an automatic divider in the FLIPR. A change in the calcium concentration in the cells, which corresponded to the ligand response, was measured by a CCD camera in the FLIPR as a change in the amount of fluorescence of Fluo-3. The obtained change in the amount of fluorescence was plotted against the concentration of the test compound, and the compound concentration at which 50% of the change in the amount of fluorescence (i.e., IC50 value) was inhibited was calculated.

[2] = biological target: T1, human metastin receptor hOT7T175; assay: binding inhibiting activity: 125I-metastin (40-54) binding to cell membrane fraction of h175 KB34 cells; details: room temperature 60 minutes, read-out: binding inhibiting activity, represented by the IC50 value
Procedure, shortened: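 The assay buffer (pH 7.4 Tris with magnesium acetate, EGTA and a protease-inhibitor cocktail) was used either plain or supplemented with 1 mg/ml BSA. The radioligand was 125I-labelled human metastin (40-54). The receptor source was a 250-fold diluted membrane fraction of the stable CHO/dhfr− line h175 KB34.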

blood LH level = assay: Suppression of the blood LH level of castrated rats; assay type: in vivo, rat; details: male castrated Wistar rats
Description: The compound of Example 303 was intravenously administered to male castrated rats, and the blood LH level was measured. Male Wistar rats (Japan SLC, Inc.), which were castrated 7 days before the experiment and were 11 weeks old at the time of the experiment, were used. […] To the control animals (n=8), only 20% DMSO-[…]% PEG400 used as a dispersion medium was intravenously administered in an amount of 0.8 ml/kg every 10 minutes, 5 times in succession. […] The LH concentration in the plasma was measured by radioimmunoassay. […] The start time of the administration was set to 0 (represented with the arrow).

T1 sequence (Q969F8 whole entry L364H): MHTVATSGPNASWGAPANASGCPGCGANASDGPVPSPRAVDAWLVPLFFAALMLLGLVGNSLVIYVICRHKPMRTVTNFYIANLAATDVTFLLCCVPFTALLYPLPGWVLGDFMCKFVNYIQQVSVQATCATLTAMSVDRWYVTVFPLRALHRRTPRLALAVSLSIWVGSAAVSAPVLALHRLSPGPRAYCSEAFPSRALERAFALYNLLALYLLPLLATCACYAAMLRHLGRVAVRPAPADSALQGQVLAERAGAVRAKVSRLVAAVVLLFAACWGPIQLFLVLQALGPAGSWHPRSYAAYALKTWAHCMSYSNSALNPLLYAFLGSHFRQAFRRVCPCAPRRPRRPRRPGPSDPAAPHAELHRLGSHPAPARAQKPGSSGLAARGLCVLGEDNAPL

Compound | IC50 [1] | IC50 [2] | melting point | blood LH concentration, % of that of the control group (blood LH level; intravenous 0.22 mg/kg every 10 minutes 5 times, 60 minutes after the start of administration, P<0.01) | effect on blood LH concentration (in words) (blood LH level; intravenously administered)
N#Cc1c(-c2cccc(NC(=O)CN)c2)cc(-c2ccccc2O)nc1NC(=O)c1cccs1 [Example 12, N-[3-cyano-4-[3-(glycylamino)phenyl]-6-(2-hydroxyphenyl)pyridin-2-yl]thiophene-2-carboxamide dihydrochloride] | ≤ 10 µM | ≤ 10 µM |  |  | 
Cl.N#Cc1c(-c2cccc(C(=O)NCCN)c2)cc(-c2ccccc2O)nc1NC(=O)c1cccs1 [Example 3, N-[4-(3-{[(2-aminoethyl)amino]carbonyl}phenyl)-3-cyano-6-(2-hydroxyphenyl)pyridin-2-yl]thiophene-2-carboxamide hydrochloride] | ≤ 10 µM | ≤ 10 µM | 203 to 210 °C |  | 
N#Cc1c(-c2cccc(NC(=O)CCCN)c2)cc(-c2ccccc2O)nc1NC(=O)c1cccs1 [Example 23, N-[4-{3-[(4-aminobutanoyl)amino]phenyl}-3-cyano-6-(2-hydroxyphenyl)pyridin-2-yl]thiophene-2-carboxamide dihydrochloride] | ≤ 10 µM | ≤ 10 µM |  |  | 
Cl.N#Cc1c(-c2cccc(NC(=O)CCN)c2)cc(-c2ccccc2O)nc1NC(=O)c1cccs1 [Example 14, N-{4-[3-(β-alanylamino)phenyl]-3-cyano-6-(2-hydroxyphenyl)pyridin-2-yl}thiophene-2-carboxamide hydrochloride] | ≤ 10 µM | ≤ 10 µM | 223 to 228 °C |  | 
NCCC(=O)Nc1cccc(-c2cc(NC(=O)c3cccs3)nc(-c3ccccc3O)c2)c1 [Example 27, N-{4-[3-(β-alanylamino)phenyl]-6-(2-hydroxyphenyl)pyridin-2-yl}thiophene-2-carboxamide dihydrochloride] | ≤ 10 µM | ≤ 10 µM |  |  | 
Cl.N#Cc1c(-c2cccc(N3CCNCC3)c2)cc(-c2ccc(F)cc2O)nc1NC(=O)c1ccco1 [Example 303, N-[3-cyano-6-(4-fluoro-2-hydroxyphenyl)-4-(3-piperazin-1-ylphenyl)pyridin-2-yl]-2-furamide hydrochloride] |  | ≤ 10 µM |  | 68% | significantly decreasing the blood LH concentration
CN(C)Cc1cccc(-c2cc(-c3ccccc3O)nc(NC(=O)c3cccs3)c2C#N)c1 [Example 2, N-[3-cyano-4-{3-[(dimethylamino)methyl]phenyl}-6-(2-hydroxyphenyl)pyridin-2-yl]thiophene-2-carboxamide] |  | ≤ 10 µM | 225 to 226 °C |  | 
Cc1ccc(-c2cc(-c3cccc(NC(=O)CCN)c3)c(C#N)c(NC(=O)c3cccs3)n2)c(O)c1.Cl [Example 57, N-{4-[3-(β-alanylamino)phenyl]-3-cyano-6-(2-hydroxy-4-methylphenyl)pyridin-2-yl}thiophene-2-carboxamide hydrochloride] |  | ≤ 10 µM | 204 to 210 °C |  | 
Cl.N#Cc1c(-c2cccc(C(=O)NC3CCNC3)c2)cc(-c2ccc(F)cc2O)nc1NC(=O)c1cccs1 (stereo not drawn) [Example 79, N-(3-cyano-6-(4-fluoro-2-hydroxyphenyl)-4-{3-[(pyrrolidine-3-ylamino)carbonyl]phenyl}pyridin-2-yl)thiophene-2-carboxamide hydrochloride] |  | ≤ 10 µM | 240 to 241 °C |  | 
CN1CCN(c2cccc(-c3cc(-c4ccc(F)cc4O)nc(NC(=O)c4ccco4)c3C#N)c2)CC1.Cl [Example 327, N-{3-cyano-6-(4-fluoro-2-hydroxyphenyl)-4-[3-(4-methylpiperazin-1-yl)phenyl]pyridin-2-yl}-2-furamide hydrochloride] |  | ≤ 10 µM | 254 to 259 °C |  | 
Cl.N#Cc1c(-c2ccc(F)c(C(=O)NCCN)c2)cc(-c2ccc(F)cc2O)nc1NC(=O)c1ccco1 [Example 281, N-[4-(3-{[(2-aminoethyl)amino]carbonyl}-4-fluorophenyl)-3-cyano-6-(4-fluoro-2-hydroxyphenyl)pyridin-2-yl]-2-furamide hydrochloride] |  | ≤ 10 µM | 255 to 264 °C |  | 
COc1ccc(C(=O)Nc2nc(-c3ccc(Cl)cc3O)cc(-c3cccc(NC(=O)CCN)c3)c2C#N)cc1.Cl [Example 252, N-[4-[3-(β-alanylamino)phenyl]-6-(4-chloro-2-hydroxyphenyl)-3-cyanopyridin-2-yl]-4-methoxybenzamide hydrochloride] |  | ≤ 10 µM | 193 to 197 °C |  | 
Cl.N#Cc1c(-c2cccc(NC(=O)[C@H]3CCCN3)c2)cc(-c2ccc(Cl)cc2O)nc1NC(=O)c1ccno1 [Example 295, N-(3-{6-(4-chloro-2-hydroxyphenyl)-3-cyano-2-[(isoxazol-5-ylcarbonyl)amino]pyridin-4-yl}phenyl)-D-prolinamide hydrochloride] |  | ≤ 10 µM | ≥ 250 °C (dec.) |  | 
Cl.N#Cc1c(-c2cccc(C(=O)NCCN)c2)cc(-c2ccc(F)cc2O)nc1NC(=O)c1cccs1 [Example 81, N-[4-(3-{[(2-aminoethyl)amino]carbonyl}phenyl)-3-cyano-6-(4-fluoro-2-hydroxyphenyl)pyridin-2-yl]thiophene-2-carboxamide hydrochloride] |  | ≤ 10 µM | 228 to 229 °C |  | 
Cl.N#Cc1c(-c2cccc(C(=O)N[C@H]3CCCC[C@H]3N)c2)cc(-c2ccc(F)cc2O)nc1NC(=O)c1ccco1 (racemic) [Example 280, N-{4-[3-({[(1SR,2RS)-2-aminocyclohexyl]amino}carbonyl)phenyl]-3-cyano-6-(4-fluoro-2-hydroxyphenyl)pyridin-2-yl}-2-furamide hydrochloride] |  | ≤ 10 µM | 250 to 252 °C |  | 
